Results on two molecules are retold here after patent US5674854A, “Inclusion complex of beta-cyclodextrin and diclofenac, its preparation and use” (Farmarc Nederland BV, priority 1993, dated 1997).

The conditions of data set [1]: phase solubility analysis; cited from earlier work.
Another data set can be described thus: physchem. It counts as physicochemical. The settings on record: identical conditions (deionized water, room temperature, 24 hours); read-out: equilibrium solubility of diclofenac sodium in the absence of beta cyclodextrin. How it is done: The vial is sealed and placed in a laboratory shaker. The mixture is allowed to shake for 5 minutes and then equilibrated for 24 hours. The supernatant is filtered through a 0,22 micron filter and analyzed for diclofenac concentration by HPLC.

For `O=C(O)Cc1ccccc1Nc1c(Cl)cccc1Cl` [diclofenac, 2-[(2,6-dichlorophenyl)amino]benzeneacetic acid], in data set [1], the “effect of beta-cyclodextrin and hydroxyalkyl ether derivatives on aqueous solubility of diclofenac” value is “increase the aqueous solubility”.

Take `O=C(O)Cc1ccccc1Nc1c(Cl)cccc1Cl` [diclofenac sodium]: in “physchem”, the solubility thermodynamic at 24 h was 5 mg/mL.
